From PubChem BioAssay (NCI) come the findings set out here.

Test systems include 786-0 renal; CAKI-1 renal; EKVX NSCLC; HOP-92 NSCLC; HT29 colon; M14 melanoma; MDA-MB-435; MOLT-4 leukemia; UO-31 renal; NCI-H460 lung; SK-MEL-2 melanoma.
Experiment in all cases: inhibition of tumour cell growth, NCI panel, 48 h

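Growth conditions: 96-well plates. Treatment: test compound, 48 hours, 5 concentrations. Analysis: linear interpolation between bracketing concentrations; unreached endpoints set to highest concentration. Definition used: TGI = concentration required for complete inhibition of growth.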

With `O=c1[nH]nc(-c2ccccc2)c2[nH]c(-c3ccccc3)cc12`, the TGI with 786-0 renal, with CAKI-1 renal, in the assay on EKVX NSCLC, in the assay with HOP-92 NSCLC, in the assay on HT29 colon and in the assay on M14 melanoma was greater than 100 µM in each case. Besides, the TGI in the assay with MDA-MB-435, with MOLT-4 leukemia and in the assay with UO-31 renal was greater than 100 µM each time.

As for `Cc1c2ncccc2cc2oc3ccccc3c(=O)c12`, the TGI in the assay with 786-0 renal was greater than 100 µM; with CAKI-1 renal, greater than 100 µM; in the assay with EKVX NSCLC, greater than 100 µM; in the assay with HOP-92 NSCLC it was 92.7 µM; in the assay with HT29 colon it was greater than 100 µM; in the assay on MDA-MB-435 it was greater than 100 µM. Also, the TGI in the assay on MOLT-4 leukemia is 23.5 µM; in the assay with NCI-H460 lung, greater than 100 µM; with SK-MEL-2 melanoma, greater than 100 µM; in the assay on UO-31 renal, greater than 100 µM.

Take `OC1(c2ccc(Cl)cc2)c2ccc3ccccc3c2C2=N[C@H]3CCCC[C@@H]3N21` (stereo not given in full): the TGI is 67.1 µM in the assay on CAKI-1 renal; 24 µM in the assay with EKVX NSCLC; 77.3 µM in the assay with HOP-92 NSCLC; 23 µM in the assay with M14 melanoma; greater than 100 µM in the assay on MDA-MB-435; greater than 100 µM in the assay with MOLT-4 leukemia. The TGI in the assay on NCI-H460 lung, in the assay on SK-MEL-2 melanoma and with UO-31 renal was greater than 100 µM each time.

Take `O=c1oc2cc(O)ccc2c(O)c1C(c1ccc(C(c2c(O)c3ccc(O)cc3oc2=O)c2c(O)c3ccc(O)cc3oc2=O)cc1)c1c(O)c2ccc(O)cc2oc1=O`: the TGI in the assay on CAKI-1 renal, in the assay with EKVX NSCLC, in the assay on HOP-92 NSCLC, with HT29 colon, in the assay on M14 melanoma and in the assay on MDA-MB-435 was greater than 100 µM throughout. The TGI in the assay with MOLT-4 leukemia, in the assay on NCI-H460 lung, in the assay on SK-MEL-2 melanoma and with UO-31 renal was greater than 100 µM in each case.

Take `O=C(N/N=C/c1ccco1)c1cc(I)cc(I)c1O`: the TGI with 786-0 renal was 37.4 µM; with CAKI-1 renal, greater than 50 µM; in the assay on EKVX NSCLC it was 37.2 µM; in the assay with HOP-92 NSCLC, greater than 50 µM; in the assay on HT29 colon it was greater than 50 µM; in the assay with M14 melanoma, greater than 50 µM. Further, the TGI in the assay on MDA-MB-435 was greater than 50 µM; in the assay on MOLT-4 leukemia, greater than 50 µM; in the assay on SK-MEL-2 melanoma, 19.7 µM; in the assay with UO-31 renal it was greater than 50 µM.

With `CC1S/C(=N/c2nnc(-c3ccccc3)o2)NC1=O` (stereo not given), the TGI was 85.4 µM in the assay on 786-0 renal; greater than 100 µM in the assay with CAKI-1 renal; 85.2 µM with EKVX NSCLC; greater than 100 µM in the assay with HOP-92 NSCLC; 69.8 µM in the assay on HT29 colon; 56.5 µM with M14 melanoma. The TGI in the assay with MDA-MB-435, in the assay with MOLT-4 leukemia, in the assay with SK-MEL-2 melanoma and with UO-31 renal was greater than 100 µM throughout.

Regarding `O=C1C=CC(=O)c2c(O)c(NCCc3ccc(O)cc3)c(Cl)c(O)c21`, the TGI with 786-0 renal, in the assay with CAKI-1 renal, in the assay on EKVX NSCLC, in the assay on HOP-92 NSCLC, in the assay on HT29 colon and with M14 melanoma was greater than 10 µM in each case. In addition, the TGI in the assay with MDA-MB-435, in the assay on MOLT-4 leukemia, in the assay on NCI-H460 lung and in the assay on SK-MEL-2 melanoma was greater than 10 µM throughout.

On to `O=C1C=C(c2ccccc2)O/C1=C/C(=O)c1ccc(Cl)cc1`, for which the TGI in the assay with 786-0 renal was 29.9 µM; in the assay with CAKI-1 renal it was 27.6 µM; in the assay with EKVX NSCLC, greater than 100 µM; in the assay with HOP-92 NSCLC, 44.9 µM; with HT29 colon it was 36.5 µM; in the assay with M14 melanoma, 40.3 µM. Moreover, the TGI in the assay with MDA-MB-435 was 28.5 µM; in the assay on MOLT-4 leukemia, greater than 100 µM; in the assay on NCI-H460 lung, 41.5 µM; in the assay on UO-31 renal, 38.9 µM.

Consider `CN(C)CCn1c(=O)c2ccc(NCCCN(C)CCCNc3ccc4c(=O)n(CCN(C)C)c(=O)n5c6ccc([N+](=O)[O-])cc6c(=O)c3c45)c3c(=O)c4cc([N+](=O)[O-])ccc4n(c1=O)c23`, for which the TGI was determined as 0.385 µM in the assay with 786-0 renal; 1.16 µM in the assay with CAKI-1 renal; 1.32 µM in the assay with EKVX NSCLC; 0.198 µM in the assay on HOP-92 NSCLC; 0.726 µM in the assay with HT29 colon; 0.753 µM in the assay on M14 melanoma. The results for the TGI in the assay on MDA-MB-435, with NCI-H460 lung and in the assay on UO-31 renal were 0.097 µM, 0.12 µM and 0.705 µM, respectively.

On to `O=C(CSc1n[nH]c(=O)[nH]c1=O)NNC(=O)c1cccc2nc3ccccc3nc12`, for which the TGI in the assay with 786-0 renal, in the assay on CAKI-1 renal, in the assay on EKVX NSCLC, with HOP-92 NSCLC, with HT29 colon and in the assay with M14 melanoma was greater than 100 µM each time. Besides, the TGI with MDA-MB-435, in the assay on MOLT-4 leukemia, in the assay with NCI-H460 lung and with SK-MEL-2 melanoma was greater than 100 µM throughout.

Turning to `COc1ccc(-c2c(C#N)c(N)nc3c2CCS(=O)(=O)c2ccccc2-3)cc1`, the TGI in the assay with 786-0 renal, in the assay on CAKI-1 renal, with HOP-92 NSCLC, in the assay with HT29 colon, in the assay with MDA-MB-435 and in the assay on NCI-H460 lung was greater than 100 µM throughout. The TGI in the assay with SK-MEL-2 melanoma and in the assay with UO-31 renal was greater than 100 µM in each case.
